The data set is described as follows: Hygroscopicity test according to CP2005 (RH 70%, 25° C.). It counts as physicochemical. Conditions: sampling time 48 h, 5 grams of sample. Here is the method:
The erythromycin ethylsuccinate crystalline hydrate according to the present invention was stable during storage. The above sample was sealed in vials and subjected to accelerated stability test at 30° C. using HPLC (C18 reverse phase column, 4.6×250 mm, 5 μm), mobile phase: 10 mmol/L sodium dodecyl sulfate solution containing 0.1% triethylamine (pH adjusted to 3.4 with phosphoric acid)—acetonitrile (55:45), detection wavelength was 205 nm, and the flow rate is 1.0 ml/min, and the change of relevant substances and content was detected. […] According to CP2005, 5 grams of the sample of the present invention was, at 25° C., placed in a relative humidity of 70% in the test for hygroscopicity. It is surprising that erythromycin ethylsuccinate hydrate leads to less hygroscopic weight gain. […] In addition, the deliquescence of anhydride makes it necessary to isolate from air during processing to prevent adhesions, while the hydrate has good sliding properties, thereby improving the operability of the formulation.

Consider “Erythromycin Ethylsuccinate 0.25 H2O Hydrate”, for which the “hygroscopic weight gain %, compared to 0 h” value is listed as 0.59%. Next, “Erythromycin Ethylsuccinate 0.5 H2O Hydrate”: 0.2%.

Source of the values: patent US9221862B2, “Erythromycin ethylsuccinate crystalline hydrate, preparation and uses thereof” (priority 2011, dated 2015).
